In brackets after ≈: the same amount, converted by molar mass.
Experiments:
Assay in all cases: Other MIC determination, microdilution method (CLSI M07-A9) with modifications
Type in all cases: cell-based
[1] = test system: Staphylococcus warneri (CHUG-Swar1); settings: 10^6 CFU/ml, 18h at 37 °C
Procedure: (§1) The microdilution method recommended by the Clinical and Laboratory Standard Institute [M07-A9, Vol.32, N°2] was used with the following modifications.
(§2) Bacterial inocula were prepared in Mueller Hinton broth (MH2, BioMérieux, Marcy L'Etoile, France). They were dispensed in 96 well microtiter plates (10^6 CFU/ml of final inoculum, 192 µL per well).
(§3) To avoid cross-contaminations in microtiter plates, one row was left blank between each strain tested. Microplates were incubated for 18h at 37 °C in ambient air. Then MICs were read visually and, in case of visual reading difficulties, confirmed using a spectrophotometer at a wavelength of 630 nm (BioTek® EL808 Absorbance Microplate Reader). MICs corresponded to the minimum pyrrolic compound concentrations that allowed complete visual growth inhibition of bacteria. Drug-free cultures served as growth controls.
(§4) We used four Staphylococcus aureus strains. Two reference strains were provided by the French reference center for Staphylococcus spp. (Lyon, France), including one methicillin-susceptible (MSSA 476) and one methicillin-resistant (MRSA 252) S. aureus strains. The two remaining S. aureus strains were purchased from the CRBIP (Centre de Ressources Biologiques de l'Institut Pasteur): a vancomycin-intermediate strain (ATCC 106414) and a S. aureus strain (SA-1199B) resistant to fluoroquinolones due to overexpression of the NorA multidrug efflux pump. Coagulase-negative Staphylococcus strains included three reference strains purchased from CRBIP: a methicillin-susceptible S. epidermidis strain (ATCC 12228), a methicillin-resistant S. epidermidis strain (ATCC 49461), and a methicillin-susceptible S. sciuri strain (ATCC 29061). We also used 37 clinical strains belonging to the following coagulase-negative Staphylococcus species: S. arlettae (two strains), S. capitis (nine strains), S. epidermidis (one strain), S. haemolyticus (six strains), S. hominis (eight strains), S. lugdunensis (one strain), S. massiliensis (one strain), S. pettenkoferi (two strains), S. saprophyticus (two strains), S. simulans (one strain), and S. warneri (four strains) . Identification of the clinical strains was first obtained using VITEK® 2 System (Biomérieux) and confirmed by amplification and sequencing of the tuf gene (Reference: Bergeron, M., O. Dauwalder, M. Gouy, A.-M. Freydiere, M. Bes, H. Meugnier, Y. Benito, J. Etienne, G. Lina, F. Vandenesch, and S. Boisset. Species identification of staphylococci by amplification and sequencing of the tuf gene compared to the gap gene and by matrix-assisted laser desorption ionization time-of-flight mass spectrometry, Eur. J. Clin. Microbial. Infect. Dis. 2011, 30, 343-354).
(§5) The activity of pyrrolic compounds 3c, 3e-3j and 3n was first tested against 12 Staphylococcus sp. strains, including 7 reference strains and five clinical strains. The MICs of these compounds against Staphylococcus aureus ATCC 106414 (VISA) and Staphylococcus epidermidis ATCC 12228 are in accordance with those described in Tables I and II.

[2] = test system: Staphylococcus sciuri (ATCC 29061); settings: Mammaliicoccus sciuri, ATCC29061, 10^6 CFU/ml, 18h at 37 °C
Procedure: as §1, §2, §3, §4, §5

[3] = test system: Staphylococcus epidermidis (ATCC 12228); settings: ATCC12228, 10^6 CFU/ml, 18h at 37 °C
Procedure: as §1, §2, §3, §4, §5

[4] = test system: Staphylococcus capitis (CHUG-Scapi1); settings: 10^6 CFU/ml, 18h at 37 °C
Procedure: as §1, §2, §3, §4, §5

[5] = test system: Staphylococcus aureus (ATCC 106414, VISA); settings: 10^6 CFU/ml, 18h at 37 °C
Procedure: as §1, §2, §3, §4, §5

[6] = test system: Staphylococcus pettenkoferi (CHUG-Spet1); settings: 10^6 CFU/ml, 18h at 37 °C
Procedure: as §1, §2, §3, §4, §5

[7] = test system: Staphylococcus hominis(CHUG-Shom1); settings: 10^6 CFU/ml, 18h at 37 °C
Procedure: as §1, §2, §3, §4, §5

[8] = test system: Staphylococcus epidermidis (ATCC 49461); settings: ATCC49461, 10^6 CFU/ml, 18h at 37 °C
Procedure: as §1, §2, §3, §4, §5

[9] = test system: Staphylococcus aureus (MRSA 252); settings: 10^6 CFU/ml, 18h at 37 °C
Procedure: as §1, §2, §3, §4, §5

[10] = test system: Staphylococcus haemolyticus (CHUG-Shae1); settings: 10^6 CFU/ml, 18h at 37 °C
Procedure: as §1, §2, §3, §4, §5

[11] = test system: Staphylococcus aureus (MSSA476); settings: 10^6 CFU/ml, 18h at 37 °C
Procedure: as §1, §2, §3, §4, §5

Question: CC(=O)c1c(C)[nH]c(C(c2ccc(F)cc2)c2[nH]c(C)c(C(C)=O)c2C)c1C [3g] was tested. Which MIC [1] did it give?
Answer: 8 µg/mL (≈ 21 µM)

Question: And the MIC [2]?
Answer: > 32 µg/mL

Question: And the MIC [3]?
Answer: > 32 µg/mL

Question: What about the MIC [4] of the same compound?
Answer: 8 µg/mL (≈ 21 µM)

Question: And the MIC [5]?
Answer: 4 µg/mL (≈ 10.5 µM)

Question: What about the MIC [6] of the same compound?
Answer: > 32 µg/mL

Question: What about the MIC [7] of the same compound?
Answer: > 32 µg/mL

Question: And the MIC [8]?
Answer: > 32 µg/mL

Question: What about the MIC [9] of the same compound?
Answer: 8 µg/mL (≈ 21 µM)

Question: And the MIC [10]?
Answer: 16 µg/mL (≈ 42.1 µM)

Question: And the MIC [11]?
Answer: 4 µg/mL (≈ 10.5 µM)

Question: Which results are given for CC(=O)c1c(C)[nH]c(C(c2cc3ccccc3s2)c2[nH]c(C)c(C(C)=O)c2C)c1C [3f]?
Answer: MIC [1]: 4 µg/mL (≈ 9.56 µM); MIC [2]: > 32 µg/mL; MIC [3]: > 32 µg/mL; MIC [4]: > 32 µg/mL; MIC [5]: 2 µg/mL (≈ 4.78 µM); MIC [6]: > 32 µg/mL; MIC [7]: > 32 µg/mL; MIC [8]: > 32 µg/mL; MIC [9]: 4 µg/mL (≈ 9.56 µM); MIC [10]: > 32 µg/mL; MIC [11]: 4 µg/mL (≈ 9.56 µM)

Question: For CC(=O)c1c(C)[nH]c(C(c2cc3ccccc3o2)c2[nH]c(C)c(C(C)=O)c2C)c1C [3e], which MIC [1] is on record?
Answer: 8 µg/mL (≈ 19.9 µM)

Question: And the MIC [2]?
Answer: > 32 µg/mL

Question: And the MIC [3]?
Answer: > 32 µg/mL

Question: What about the MIC [4] of the same compound?
Answer: 8 µg/mL (≈ 19.9 µM)

Question: And the MIC [5]?
Answer: 4 µg/mL (≈ 9.94 µM)

Question: And the MIC [6]?
Answer: > 32 µg/mL

Question: And the MIC [7]?
Answer: > 32 µg/mL

Question: And the MIC [8]?
Answer: > 32 µg/mL

Question: And the MIC [9]?
Answer: 8 µg/mL (≈ 19.9 µM)

Question: What about the MIC [10] of the same compound?
Answer: > 32 µg/mL

Question: And the MIC [11]?
Answer: 4 µg/mL (≈ 9.94 µM)

— patent EP2812315B1, “PYRROLIC DERIVATIVES, PROCESSES FOR PREPARING THE SAME AND THEIR USES AS A DRUG” (Universite Joseph Fourier, priority 2012, dated 2013)
